# Counter-ions that a name gives are not always drawn. Like-named read-outs stand apart in the source and are kept apart here.
# Experiments:
# [1] = tested on: HCC78 cells having ROS1 fusion gene; test: HCC78 cell growth assay (CellTiter-Glo); type: cell-based; conditions: Homo sapiens, 72 hours culture, 2% FBS medium, luminescence, four separate measurements, read-out: growth inhibitory effect on HCC78 cells having ROS1 fusion gene IC50
# Description: Each compound of the present invention was assayed for its cell growth inhibitory effect using HCC78 cells having ROS1 fusion gene.
# The suspension was dispensed at a concentration of 100 μL/well to a 96-well culture plate for cell culture (SUMITOMO BAKELITE, Cat No MS-0096S) (hereinafter, referred to as an assay plate). […] In this context, the final concentration of DMSO was set to 0.4%. Then, the cells were cultured for 72 hours in a CO2 incubator.
# CellTiter-Glo Luminescent Cell Viability Assay reagent (Promega, Cat No G7571) was dispensed at a concentration of 100 μL/well to the assay plate. The contents in each well were reacted at room temperature for 10 minutes while stirred using a plate mixer. […] The luminescence intensity of each well was measured using EnVision. The luminescence intensity of each well obtained in four separate measurements was defined as the number of cells. IC50 values were calculated by curve fitting using GraphPad Prism version 4.
# ROS1 [2] = target: T1, ROS1 (Homo sapiens, UniProt P08922); test: ROS1 kinase inhibitory activity evaluation (mobility shift, EZ Reader II); type: biochemical; conditions: ROS1 25 pg/μL, FL-Peptide 22 substrate, three separate measurements
# T1 construct: purchased Carna Biosciences 08-163
# Description: Next, a substrate reaction solution was prepared. […] Then, the reaction stop solution was added thereto at a concentration of 40 μL/well. Substrate phosphorylation intensity was measured using EZ Reader II (Caliper Life Sciences).
# ROS1 [3] = target: T1, ROS1; test: ROS1 autophosphorylation inhibitory activity evaluation (ADP-Glo); type: biochemical; conditions: 200 nM inactive ROS1, ATP 1 mM, 25° C. 1.5 hours, ADP generated, four separate measurements
# Description: Fifty mM HEPES (pH 7.5), 10 mM MgCl2, 0.01% Brij-58, and 2.5 mM DTT were mixed to prepare an enzymatic reaction solution. […] ATP (final concentration: 1 mM) was further added thereto at a concentration of 2.5 μL/well. The resulting plate was left standing at 25° C. for 1.5 hours to cause enzymatic reaction. After the completion of enzymatic reaction, ADP-Glo Reagent-1 (Promega, V9103) was added thereto at a concentration of 2.5 μL/well, and the plate was left standing at room temperature for 60 minutes. Then, ADP-Glo Reagent-2 (Promega) was added thereto at a concentration of 5 μL/well, and the plate was left standing at room temperature for 60 minutes. The amount of ADP generated by the autophosphorylation of ROS1 was measured using EnVision (PerkinElmer Japan). The amount of ADP generated in four separate measurements was defined as the autophosphorylation intensity of ROS1. IC50 values were calculated by curve fitting using GraphPad Prism version 4 (GraphPad software).
# T1 sequence (P08922 28-2347): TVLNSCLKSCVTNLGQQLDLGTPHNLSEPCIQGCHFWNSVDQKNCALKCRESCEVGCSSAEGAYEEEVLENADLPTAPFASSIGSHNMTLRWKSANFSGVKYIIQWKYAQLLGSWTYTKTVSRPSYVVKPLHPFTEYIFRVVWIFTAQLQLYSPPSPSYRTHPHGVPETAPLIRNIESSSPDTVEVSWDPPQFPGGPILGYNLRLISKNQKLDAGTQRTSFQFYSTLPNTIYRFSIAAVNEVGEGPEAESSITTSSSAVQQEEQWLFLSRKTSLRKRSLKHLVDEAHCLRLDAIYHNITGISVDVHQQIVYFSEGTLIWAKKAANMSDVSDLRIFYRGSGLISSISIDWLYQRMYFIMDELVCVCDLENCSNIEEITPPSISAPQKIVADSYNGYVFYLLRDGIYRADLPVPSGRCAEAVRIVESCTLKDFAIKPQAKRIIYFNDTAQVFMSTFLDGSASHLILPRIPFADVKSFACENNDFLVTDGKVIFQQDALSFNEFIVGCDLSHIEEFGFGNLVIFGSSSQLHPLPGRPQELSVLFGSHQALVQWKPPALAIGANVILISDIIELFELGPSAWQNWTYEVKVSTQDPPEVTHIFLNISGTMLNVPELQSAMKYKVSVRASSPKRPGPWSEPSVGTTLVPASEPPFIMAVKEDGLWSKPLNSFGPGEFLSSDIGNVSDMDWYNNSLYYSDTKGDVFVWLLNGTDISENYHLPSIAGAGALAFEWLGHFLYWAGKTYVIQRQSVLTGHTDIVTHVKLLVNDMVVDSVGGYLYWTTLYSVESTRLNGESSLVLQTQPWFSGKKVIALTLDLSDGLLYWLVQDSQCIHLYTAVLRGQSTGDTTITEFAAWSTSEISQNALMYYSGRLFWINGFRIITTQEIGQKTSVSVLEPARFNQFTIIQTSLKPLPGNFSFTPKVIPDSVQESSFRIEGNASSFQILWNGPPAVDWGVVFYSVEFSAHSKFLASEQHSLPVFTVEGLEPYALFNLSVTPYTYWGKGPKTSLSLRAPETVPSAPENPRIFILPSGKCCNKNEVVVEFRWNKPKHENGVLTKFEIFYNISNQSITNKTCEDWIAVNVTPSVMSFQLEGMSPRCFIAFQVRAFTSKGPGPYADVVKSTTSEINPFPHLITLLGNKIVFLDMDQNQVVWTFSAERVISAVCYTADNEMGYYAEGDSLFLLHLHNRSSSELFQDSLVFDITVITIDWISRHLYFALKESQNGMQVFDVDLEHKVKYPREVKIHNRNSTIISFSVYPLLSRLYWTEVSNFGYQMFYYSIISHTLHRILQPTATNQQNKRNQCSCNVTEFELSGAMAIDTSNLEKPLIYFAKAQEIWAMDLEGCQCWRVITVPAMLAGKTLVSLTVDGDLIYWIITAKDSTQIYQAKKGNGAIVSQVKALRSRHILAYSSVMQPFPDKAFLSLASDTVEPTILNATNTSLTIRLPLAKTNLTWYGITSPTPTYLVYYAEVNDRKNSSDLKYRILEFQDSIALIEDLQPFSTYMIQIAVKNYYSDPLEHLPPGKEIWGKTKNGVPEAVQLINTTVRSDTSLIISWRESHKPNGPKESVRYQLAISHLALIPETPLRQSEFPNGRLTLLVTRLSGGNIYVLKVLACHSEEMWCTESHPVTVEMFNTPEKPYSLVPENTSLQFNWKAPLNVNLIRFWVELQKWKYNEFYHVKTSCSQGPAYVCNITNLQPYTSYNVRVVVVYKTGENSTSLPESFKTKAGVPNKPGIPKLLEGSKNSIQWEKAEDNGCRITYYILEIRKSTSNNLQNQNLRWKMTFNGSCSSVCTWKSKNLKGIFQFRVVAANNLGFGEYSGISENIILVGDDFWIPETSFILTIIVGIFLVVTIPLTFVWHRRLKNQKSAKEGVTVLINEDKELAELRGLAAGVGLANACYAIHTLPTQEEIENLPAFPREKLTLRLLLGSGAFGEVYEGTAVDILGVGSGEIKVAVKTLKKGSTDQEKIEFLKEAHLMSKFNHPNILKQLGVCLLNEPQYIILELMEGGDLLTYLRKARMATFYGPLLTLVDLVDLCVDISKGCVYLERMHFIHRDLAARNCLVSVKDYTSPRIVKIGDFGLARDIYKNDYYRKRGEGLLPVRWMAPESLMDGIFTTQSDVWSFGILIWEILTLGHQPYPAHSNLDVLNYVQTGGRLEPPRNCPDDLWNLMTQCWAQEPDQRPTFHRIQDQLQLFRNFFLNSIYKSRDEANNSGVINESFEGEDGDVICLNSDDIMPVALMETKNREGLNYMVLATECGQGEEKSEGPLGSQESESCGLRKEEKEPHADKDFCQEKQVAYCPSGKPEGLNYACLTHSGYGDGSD
Structure (SMILES),"IC50 ([1]; HCC78, 72 h)",IC50 (ROS1 [2]),IC50 (ROS1 [3]),IC50 ([1]; HCC78)
CNCCCOc1ccc(-c2cnc3ccc(N[C@H](C)c4cccc(F)c4)nn23)cc1 [Example 31],20 to 100 nM,1 to 10 nM,< 20 nM,–
"C[C@@H](Nc1ccc2ncc(-c3ccc(OC[C@@H](N)CO)cc3)n2n1)c1cccc(F)c1 [Example 56, (2S)-2-Amino-3-[4-[6-[[(1R)-1-(3-fluorophenyl)ethyl]amino]imidazo[1,2-b]pyridazin-3-yl]phenoxy]propan-1-ol]",< 20 nM,< 1 nM,< 20 nM,–
"c1ccc(CNc2ccc3ncc(-c4ccc(OC[C@@H]5CCNC5)cc4)n3n2)cc1 [Example 5, N-Benzyl-3-[4-[[(3R)-pyrrolidin-3-yl]methoxy]phenyl]imidazo[1,2-b]pyridazin-6-amine]",20 to 100 nM,1 to 10 nM,20 to 100 nM,–
"CC(N)COc1ccc(-c2cnc3ccc(N[C@H](C)c4cccc(F)c4)nn23)cc1 (stereo partly drawn) [Example 35, 3-[4-(2-Aminopropoxy)phenyl]-N-[(1R)-1-(3-fluorophenyl)ethyl]imidazo[1,2-b]pyridazin-6-amine]",< 20 nM,–,–,–
"C[C@@H](Oc1ccc2ncc(-c3ccc(OC[C@@H]4CCCN4)cc3)n2n1)c1cccc(F)c1 [Example 16, 6-[(1R)-1-(3-Fluorophenyl)ethoxy]-3-[4-[[(2S)-pyrrolidin-2-yl]methoxy]phenyl]imidazo[1,2-b]pyridazine]",20 to 100 nM,< 1 nM,–,–
"C[C@@H](Nc1ccc2ncc(-c3ccc(OC4CCCC4N)cc3)n2n1)c1cccc(F)c1 (single isomer, unassigned) [Example 32]",–,< 1 nM,< 20 nM,–
"CN(Cc1cccc(Cl)c1)c1ccc2ncc(-c3ccc(N4CC(N)CC4=O)cc3)n2n1 (stereo not shown) [Example 96, 4-Amino-1-[4-[6-[(3-chlorophenyl)methyl-methylamino]imidazo[1,2-b]pyridazin-3-yl]phenyl]pyrrolidin-2-one]",–,–,–,100 to 600 nM
"CN(Cc1cccc(F)c1)c1ccc2ncc(-c3ccc(N4CC(C)(N)CC4=O)cc3)n2n1 (single isomer, unassigned) [Example 86, 4-Amino-1-[4-[6-[(3-fluorophenyl)methyl-methylamino]imidazo[1,2-b]pyridazin-3-yl]phenyl]-4-methylpyrrolidin-2-one]",–,–,< 20 nM,–

# The remaining lines, values ahead:
"IC50 ([1]; HCC78, 72 h)",IC50 (ROS1 [2]),IC50 (ROS1 [3]),IC50 ([1]; HCC78),Structure (SMILES)
20 to 100 nM,1 to 10 nM,< 20 nM,–,CC(Oc1ccc2ncc(-c3ccc(N4C[C@@H](N)CC4=O)cc3)n2n1)c1cncc(Cl)c1 (stereo partly shown) [Example 112]
100 to 600 nM,10 to 60 nM,100 to 150 nM,–,"CC(Oc1ccc2ncc(-c3ccc(N4C[C@@H](N)CC4=O)cc3)n2n1)c1cc(C#N)n(C)n1 (stereo partly drawn) [Example 116, 5-[1-[3-[4-[(4S)-4-Amino-2-oxopyrrolidin-1-yl]phenyl]imidazo[1,2-b]pyridazin-6-yl]oxyethyl]-2-methylpyrazole-3-carbonitrile]"
–,–,< 20 nM,–,"C[C@@H](Oc1ccc2ncc(-c3ccc(N4C[C@@H](N)CC4=O)cc3)n2n1)c1cccc(F)c1 [Example 133, (4S)-4-Amino-1-[4-[6-[(1R)-1-(3-fluorophenyl)ethoxy]imidazo[1,2-b]pyridazin-3-yl]phenyl]pyrrolidin-2-one hydrochloride]"
–,1 to 10 nM,–,–,"CC(Oc1ccc2ncc(-c3ccc(N4C[C@@H](N)CC4=O)cc3)n2n1)c1cc(F)cnc1F (stereo partly drawn) [Example 134, (4S)-4-Amino-1-[4-[6-[(1-(2,5-difluoro-3-pyridyl)ethoxy]imidazo[1,2-b]pyridazin-3-yl]phenyl]pyrrolidin-2-one hydrochloride]"
–,–,20 to 100 nM,–,"CN(Cc1cncc(F)c1)c1ccc2ncc(-c3ccc(N4CC(C)(N)CC4=O)cc3)n2n1 (single isomer, unassigned) [Example 125, 4-Amino-1-[4-[6-[(5-fluoro-3-pyridyl)methyl-methylamino]imidazo[1,2-b]pyridazin-3-yl]phenyl]-4-methylpyrrolidin-2-one]"

# From patent publication US9751887B2, “Imidazo[1,2-b]pyridazine derivatives as kinase inhibitors” (Daiichi Sankyo Company, Limited, priority 2012, dated 2017)
